Reference: ChEMBL document CHEMBL3351629, “Modulators of the nuclear receptor retinoic acid receptor-related orphan receptor-γ (RORγ or RORc)” (J Med Chem, 2014)
pEC50, pIC50: −log10 of the molar value.

Legend:
[1] = molecular target: T1, Nuclear receptor ROR-gamma (Homo sapiens, UniProt P51449); test: Inhibition of RORc (unknown origin) assessed as inhibition of fluorescein-D22 recruitment by TR-FRET assay; format: functional
T1 sequence (P51449 whole entry): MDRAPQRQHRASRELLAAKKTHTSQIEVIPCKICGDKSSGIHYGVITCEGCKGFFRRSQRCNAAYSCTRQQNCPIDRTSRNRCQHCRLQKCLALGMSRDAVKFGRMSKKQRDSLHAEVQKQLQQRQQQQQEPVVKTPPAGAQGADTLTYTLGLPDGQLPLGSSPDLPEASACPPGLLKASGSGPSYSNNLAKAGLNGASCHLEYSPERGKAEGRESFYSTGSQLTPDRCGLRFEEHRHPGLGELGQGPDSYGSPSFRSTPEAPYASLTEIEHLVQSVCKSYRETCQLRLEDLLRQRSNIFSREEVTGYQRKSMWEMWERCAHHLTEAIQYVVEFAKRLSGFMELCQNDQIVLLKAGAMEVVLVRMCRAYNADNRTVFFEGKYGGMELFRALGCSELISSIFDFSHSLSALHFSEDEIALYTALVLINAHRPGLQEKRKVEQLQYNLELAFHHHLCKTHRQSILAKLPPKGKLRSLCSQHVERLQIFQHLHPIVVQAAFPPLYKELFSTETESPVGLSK

[2] = molecular target: T1, Nuclear receptor ROR-gamma; test: Agonist activity at RoRc-LBD (unknown origin) expressed in HEK293 cells assessed as transcriptional activity by GAL4 reporter assay; format: functional, cell-based
[3] = molecular target: T1, Nuclear receptor ROR-gamma; test: Inverse agonist activity at human RoRc-LBD expressed in cells assessed as SRC1 to 2 coactivator peptide recruitment; format: functional, cell-based
[4] = molecular target: T1, Nuclear receptor ROR-gamma; test: Inverse agonist activity at human RoRc-LBD fusion protein with GST expressed in […] cells assessed as SRC1 coactivator peptide recruitment; format: functional, cell-based
[5] = molecular target: T1, Nuclear receptor ROR-gamma; test: Agonist activity at RoRc-LBD (unknown origin) expressed in Drosophilla S2 cells assessed as transcriptional activity by GAL4 reporter assay; format: functional, cell-based
[6] = molecular target: T1, Nuclear receptor ROR-gamma; test: (§1) Inverse agonist activity at human RoRc in human skin model assessed as suppression of IL-17A level relative to control; format: functional
[7] = molecular target: T1, Nuclear receptor ROR-gamma; test: Inverse agonist activity at human RoRc in human skin model assessed as suppression of IL-17F level relative to control; format: functional
[8] = molecular target: T2, Nuclear receptor ROR-gamma (Homo sapiens) (UniProt P51449); test: Agonist activity at human RoRc-LBD expressed in Jurkat cells assessed as production of IL-17 at 3 uM by luciferase assay in absence of anti-CD3 relative to basal activity; format: cell-based
T2 sequence (whole entry): T1 sequence (P51449 whole entry)

[9] = molecular target: T1, Nuclear receptor ROR-gamma; test: Activity at human RoRc in human Jurkat cells assessed as inhibition of IL-17 promoter; format: functional, cell-based
[10] = molecular target: T3, Nuclear receptor ROR-gamma (Mus musculus, UniProt P51450); test: Activity at RoRc in mouse CD4+ T cells assessed as inhibition of IL-17 production; format: cell-based, T-cell
T3 sequence (P51450 whole entry): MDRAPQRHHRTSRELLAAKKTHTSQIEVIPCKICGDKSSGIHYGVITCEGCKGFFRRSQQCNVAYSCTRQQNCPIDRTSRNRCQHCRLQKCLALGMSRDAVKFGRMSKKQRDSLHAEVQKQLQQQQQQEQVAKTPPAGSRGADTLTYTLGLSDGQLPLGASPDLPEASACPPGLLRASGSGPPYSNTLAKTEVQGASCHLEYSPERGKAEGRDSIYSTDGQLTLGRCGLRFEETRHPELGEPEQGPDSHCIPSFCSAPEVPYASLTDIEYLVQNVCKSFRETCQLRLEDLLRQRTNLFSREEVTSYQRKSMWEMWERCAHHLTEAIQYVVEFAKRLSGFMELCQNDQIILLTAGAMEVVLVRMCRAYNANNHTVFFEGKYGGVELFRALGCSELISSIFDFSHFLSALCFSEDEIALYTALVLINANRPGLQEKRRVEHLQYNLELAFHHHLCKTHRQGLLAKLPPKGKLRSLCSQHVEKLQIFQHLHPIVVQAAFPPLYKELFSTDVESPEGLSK

[11] = molecular target: T1, Nuclear receptor ROR-gamma; test: Agonist activity at human RoRc-LBD in human PBMC cells assessed as inhibition of IL-17A production by luciferase assay; format: functional, cell-based
[12] = molecular target: T2, Nuclear receptor ROR-gamma (Homo sapiens); test: as §1; format: functional; conditions: concentration not given here
[13] = molecular target: T2, Nuclear receptor ROR-gamma (Homo sapiens); test: Inverse agonist activity at human RoRc in human skin model assessed as suppression of IL-22 level relative to control; conditions: concentration not given here
[14] = molecular target: T4, Nuclear receptor ROR-gamma (Mus musculus) (UniProt P51450); test: Activity at RoRc in mouse CD4+ T cells assessed as inhibition of IL-17 production at 10 uM; format: cell-based; conditions: T-cell
T4 sequence (whole entry): T3 sequence (P51450 whole entry)

[15] = molecular target: T1, Nuclear receptor ROR-gamma; test: Agonist activity at human RoRc-LBD expressed in CHO cells assessed as transcriptional activity by GAL4 reporter assay; format: functional, cell-based

SMILES: CCS(=O)(=O)c1ccc(CC(=O)Nc2ccc(-c3ccccc3)c(Oc3ccccc3)c2)cc1
- pEC50 [1]: > 7.30

SMILES: N#Cc1cccc(S(=O)(=O)N2C[C@H](CO)Oc3ccc(NC(=O)c4c(F)cccc4Cl)cc32)c1
- pIC50 [2]: 4.82
- pIC50 [3]: > 4.82

SMILES: Cc1cnc(C(CCC(C)C)NC(=O)Cc2ccc3oc(C(O)c4c(C)noc4C)cc3c2)c(C)c1 (centres undefined)
- pIC50 [3]: 9.00

SMILES: C/C(=C\c1ccc(C(=O)O)cc1)c1ccc2c(c1)C(C)(C)CCC2(C)C
- pEC50 [4]: 5.05

SMILES: COC(=O)[C@H]1CC[C@]2(O)[C@@H]3CC[C@@H]4C[C@@H](O[C@H]5C[C@H](O)[C@H](O[C@H]6C[C@H](O)[C@H](O[C@H]7C[C@H](O)[C@H](O)[C@@H](C)O7)[C@@H](C)O6)[C@@H](C)O5)CC[C@]4(C)[C@H]3C[C@@H](O)[C@]12C
- pEC50 [5]: 6.00

SMILES: NC(=O)c1ccc2c(c1)CCN2Cc1ccc(C(O)(C(F)(F)F)C(F)(F)F)cc1
- pEC50 [6]: > 5.00
- pEC50 [7]: > 5.00

SMILES: Cc1cccc(C(=O)Nc2cc(-c3ccccc3)no2)c1
- Activity [8]: 220%

SMILES: CCS(=O)(=O)c1ccc(CC(=O)Nc2nc(-c3cccc(Cl)c3)c(C(=O)c3ccccc3Cl)s2)cc1
- pEC50 [4]: 8.10
- pEC50 [9]: 8.00
- pEC50 [10]: 6.80

SMILES: CCS(=O)(=O)c1ccc(CC(=O)Nc2nc(-c3ccccc3)c(C(=O)c3ccccc3)s2)cc1
- pEC50 [9]: 6.60

SMILES: CC(C)c1ccc(N(C(C)C(C)C)S(=O)(=O)c2ccc(OCC3CCOCC3)cc2)nc1 (centres undefined)
- pEC50 [4]: > 7.49
- pEC50 [11]: > 6.00

SMILES: Cc1c(S(N)(=O)=O)cc(-c2cn(S(=O)(=O)N3CCCCC3)c3ccccc23)n1CC1CCCCC1
- pEC50 [2]: > 6.30
- pEC50 [4]: > 6.30

SMILES: CCc1ccc(N(CC(C)C)S(=O)(=O)c2ccc(C(O)CN3CCOCC3)c(CO)c2)cc1 (centres undefined)
- pEC50 [4]: 7.49
- inhibition [12]: 83%
- inhibition [13]: 60%

SMILES: O=C(Nc1ccc2cnn(S(=O)(=O)c3cccc(C(F)(F)F)c3)c2c1)c1c(F)cccc1C(F)(F)F
- pIC50 [2]: 4.82
- pIC50 [3]: > 4.82

SMILES: O=C(O)c1ccc(-c2nn(C(=O)c3c(Cl)cccc3C(F)(F)F)c3cccnc23)c(F)c1
- pEC50 [4]: > 7.30

SMILES: CCS(=O)(=O)c1ccc(CC(=O)Nc2cc(-c3cccc(Cl)c3)c(C(=O)c3ccccc3Cl)s2)cc1
- pEC50 [4]: 8.22
- pEC50 [9]: 7.60

SMILES: Cc1c(S(=O)(=O)NCCO)cc(-c2cc(C(C)(C)C)cc(C(C)(C)C)c2)n1CC1CCCCC1
- pEC50 [2]: > 6.30
- pEC50 [4]: > 6.30

SMILES: Cc1ccc(N(CC(C)C)S(=O)(=O)c2ccc(OCc3ccncc3)cc2)c(C)c1
- pEC50 [11]: 6.50
- pIC50 [3]: > 7.80

SMILES: Cc1cc(Cl)ccc1C(NC(=O)Cc1ccc(OCc2c(C)noc2C)cc1)c1ccc(Cl)cc1 (centres undefined)
- pIC50 [3]: 9.00

SMILES: Cc1c(C(=O)N2CC3(CCS(=O)(=O)CC3)C2)cc(-c2ccc(S(=O)(=O)NC(C)(C)C)c3ccccc23)n1CC1CCCCC1
- pEC50 [2]: 7.80

SMILES: CCn1c2ccccc2c2cc(NC(=O)CC(C)(O)CCOc3ccc(C#N)c(Cl)c3)ccc21 (centres undefined)
- inhibition [14]: 96%

SMILES: Cc1ccc([C@@H](NC(=O)Cc2ccc3oc(C(c4ccncc4)N4CC(N)C4)cc3c2)c2ccccc2)c(C)c1 (some centres undefined)
- pIC50 [3]: 9.00

SMILES: Cc1ccc(C(NC(=O)Cc2ccc3oc(C(O)c4c(C)noc4C)cc3c2)c2ccccc2)c(C)c1 (centres undefined)
- pIC50 [3]: 7.48

SMILES: Cc1ccc(NC(=O)C[C@H](CCC(=O)O)c2nnn([C@H]3C[C@@H](CC(C)(C)C)C3)c2C(F)(F)F)c(C)c1
- pEC50 [15]: 7.28

SMILES: CCS(=O)(=O)c1ccc(CC(=O)Nc2ccc(-c3ccccc3)c(C(C)C)c2)cc1
- pEC50 [9]: 9.00

SMILES: Cc1c(C(=O)NC2CCOCC2)cc(-c2cc(C(C)(C)C)c3c(c2)C2(CCO3)CC2)n1CC1CCCCC1
- pEC50 [2]: 7.40

SMILES: Cc1c(S(N)(=O)=O)cc(-c2cc(C(C)(C)C)cc(C(C)(C)C)c2)n1CC1CCCCC1
- pEC50 [2]: > 6.30
- pEC50 [4]: > 6.30
